Source: a melting point compilation (Tetko et al.; mined from patent text by program, amines drawn as free bases though some values may be those of a salt)

Row | melting point | SMILES
1 | 247 to 251 °C | COc1cccc2c1C(=O)N1CCC[C@H]1C(=O)N2
2 | 201 to 202 °C | CCOC(=O)c1cc(O)c2nc(C3CC3)n(C)c2c1
3 | 138 to 141 °C | CC(C)(C)OC(=O)N1CCC2(CC1)CC(c1ccc(Cl)cc1)=NO2
4 | 244 °C | CCCCc1nc(SC)c(C(=O)OCC)n1Cc1ccc(-c2ccc(S(=O)(=O)NC#N)cc2)cc1
5 | 208 to 210 °C | O=C(O)CCC(=O)c1ccc2c(c1)oc1ccccc12
6 | 140 to 142 °C | Cn1cccc1CCNc1nc(-c2cccnc2)nc2ccccc12
7 | 192 °C | Clc1ccc(Cc2nc(-c3ccccc3)nnc2NCCN2CCCCC2)cc1
8 | 273 to 276 °C | Sc1nc2ccc(Cl)cc2c2nc(-c3ccc(Br)o3)nn12
9 | 125 to 126 °C | O=C(Cc1ccncc1)[N+]1([O-])CCC(C2c3ccc(Cl)cc3CCc3cccnc32)CC1 (stereo not drawn)
10 | 132 to 134 °C | CC1(C)OC(=O)C(C(=O)Nc2ccc(Cl)c(Cl)c2)=C(O)O1
11 | 121 to 123 °C | CCN1CC=C(c2ccc(Nc3ncc4ccc(-c5ccccc5N(C)S(C)(=O)=O)n4n3)c(OC)c2)CC1
12 | 303 °C | CS(=O)(=O)N1CCCn2c(nc3c(N)nc4cc(Br)ccc4c32)C1
13 | 66 to 67.5 °C | CCOC(=O)c1ccc(-c2nc(C(=O)OCC)ns2)cc1
14 | 137 to 140 °C | C#CCn1c(-c2ccccc2)nc(C(=O)N(C)C)c(C)c1=O
15 | 99 to 101 °C | Cc1cc(NCc2ccc(Cl)cc2)nc(SCC#N)n1
16 | 201 to 202 °C | NC(=O)N1C(=O)C(=C(OC(=O)c2cccnc2)c2cccs2)c2cc(F)c(Cl)cc21
17 | 214 °C | COC(=O)Nc1cccc2c1C(=O)c1ccccc1C2=O
18 | 269 °C | Cc1nc2ncnn2c(O)c1Br
19 | 152 to 154 °C | COC(=O)Cc1c(C)n(-c2nc(OC)nc3ccccc23)c2ccc(OC)cc12
20 | 95 to 97 °C | CC(=NOCc1ccccc1-n1c(Cl)nn(C)c1=O)c1cccc(C(F)(F)F)c1

Row | melting point | SMILES
21 | 152 to 154 °C | CCCOCCOC(=O)C1=C(C)NC(C)=C(/C=C/S(=O)(=O)NC(C)C)C1c1cccc([N+](=O)[O-])c1 (stereo not drawn)
22 | 149 to 150 °C | CS(=O)(=O)c1ccc(C(CC2CCCC2)C(=O)O)cc1Br (stereo not drawn)
23 | 235 °C | CCCC(=O)Nc1n[nH]c2cc(Cl)c(-c3ccccc3)cc12
24 | 198 °C | Cc1cc(C(=O)O)c(S(N)(=O)=O)s1
25 | 230 °C | Cc1nc2cc(C3CCc4cncn43)ccc2[nH]1 (stereo not drawn)
26 | 167 to 169 °C | COc1nccnc1OCC(O)CN1CCC(N2CCc3ccccc3C2=O)CC1 (stereo not drawn)
27 | 160 to 162 °C | Cc1cc(C)c(Nc2nc(C)ccc2S(=O)(=O)c2ccc(OCCCC#N)cc2)c(C)c1
28 | 214 to 216 °C | O=C1CCc2c(-c3ccncc3)sc(-c3cccnc3)c21
29 | 240 °C | Cc1c(Br)c2ccccn2c1C(=O)c1cc(Cl)c(O)c(Cl)c1
30 | > 290 °C | Nc1nc2c(c(=O)[nH]1)C(CCc1ccc(C(=O)O)cc1)CN2 (stereo not drawn)
31 | 234 to 237 °C | O=C(O)c1nc2n(n1)-c1cccnc1N(c1ccc(Cl)cc1)C2
32 | 198 to 200 °C | O=C(NCCO)c1[nH]c2ccc(Cl)cc2c1S(=O)(=O)c1ccccc1
33 | 192 to 193 °C | CS(=O)(=O)N1CCN(c2ccc(N)cc2)CC1
34 | 294 to 295 °C | COc1ccc2[nH]cc(-c3cc4c(OC)ccnc4[nH]3)c2c1
35 | 168 to 174 °C | COc1ccc(C(=O)O)c(C(=O)O)c1
36 | 209 to 210 °C | O=c1c(CCCc2ccncc2)cc2cccnc2n1-c1cccc([N+](=O)[O-])c1
37 | 95 to 97 °C | Cc1cc(N2CCN(CCc3ccccc3)C2=O)sc1C(=O)NCc1cccnc1
38 | 130 to 132 °C | CSc1nccc(Oc2ccc(NC(=O)c3cc(F)cc(N4CCCCC4)c3)c3ccccc23)n1
39 | 177 to 178 °C | CC(C)(C)n1ncc(Cl)c(NCCN2CCN(c3cccc4c3OCCO4)CC2)c1=O
40 | 89 to 91 °C | S=C(Cc1ccc2ccccc2c1)N1CCCCC1

Further lines, the compound ahead of its results:

Row | SMILES | melting point
41 | COC(=O)c1ccccc1Nc1cccc(C(C)N(O)C(C)=O)c1Cl (stereo not drawn) | 171 to 172 °C
42 | COc1ccc2c(c1)C(N(CC(=O)O)C(=O)C(C)CSC(C)=O)CC2 (stereo not drawn) | 106 to 110 °C
43 | CCOC(=O)COc1cc(C(=O)OC)on1 | 66 to 67 °C
44 | CNC(=O)[C@H]1O[C@@H](n2cnc3c(NCc4cc(Cl)ccc4OCC4OC(O)C(O)C(O)C4O)ncnc32)[C@H](O)[C@@H]1N (stereo partly drawn) | 212 to 218 °C
45 | CC(=O)Nc1ccccc1C(=O)C=Cc1ccncc1 | 130 °C
46 | CCc1c(C(=O)c2cc(C)cc(C=CC#N)c2)[nH]c(=O)[nH]c1=O | 305 to 306 °C
47 | CN1CCC(NC(=O)c2cccc(Cl)c2)C12CCCCC2 (stereo not drawn) | 121 to 122 °C
48 | O=C(O)C=C1SC(Nc2c(Cl)cccc2Cl)=NC1=O | > 230 °C
49 | CCOC(=O)C(=O)Nc1cc(NC(=O)C(=O)OCC)c(OC)nc1OC | 170 to 173 °C
50 | CC(C=CO)c1ccc(-c2ccc(Cl)cc2)cc1 (stereo not drawn) | 130 to 132 °C
51 | Cc1cc(C)c(C(=O)Nc2ccc(-n3nc(C(F)(F)F)cc3C(F)(F)F)cc2)c(C)c1 | 203 to 205 °C
52 | Nc1ccc(C(c2cccc(N)c2)(C(F)(F)F)C(F)(F)F)cc1 | 142 to 143 °C
53 | CCC(CC)OC(=O)c1ccc(C(=O)NS(=O)(=O)c2ccc(CCNC(=O)c3cc(OC)ccc3Cl)cc2)cn1 | 174 to 176 °C
54 | Nc1nc2ncnc(NCc3ccco3)c2[nH]1 | 128 to 130 °C
55 | CCCC1(CCC)c2ccccc2-c2cc3c(cc21)OCN3c1c(O)ccc2oc3ccccc3c12 | 304 to 305 °C
56 | CCCOc1ccc(-c2ccc3c(c2)C=C(C(=O)Nc2ccc(CN(C)C4CCOCC4)cc2)CCS3(=O)=O)cc1OCCC | 206 to 208 °C
57 | CCOC1CCCC(C2NC(=O)C2C(C)O[Si](C)(C)C(C)(C)C)C1O (stereo not drawn) | 136 to 138 °C
58 | CCOC(=O)C(=CNc1cc(O)cc(O)c1)C(=O)OCC | 190 to 192 °C
59 | COc1cccc2c1CC1CC(CN3CCC(c4c[nH]c5ccccc45)CC3)CN(C)C1C2 (stereo not drawn) | 220 to 223 °C
60 | CC(=O)OC1C(OC(=O)c2ccccc2)C=C(C)C(=O)CC1(C)C (stereo not drawn) | 94 to 95 °C
61 | CN(C)C(=O)c1c(C(=O)NN=Cc2ccc3ccccc3c2)[nH]c2ccccc12 | 256 to 260 °C

Row | SMILES | melting point
62 | O=C(CCS)N[C@@H](Cc1ccccc1)C(=O)O | 106 to 107 °C
63 | CCOC(=O)C1=C(COCc2ccc(CN(C)C)s2)NC(C)=C(C(=O)OC)C1c1ccccc1Cl (stereo not drawn) | 81 to 83 °C
64 | CN1CCC(c2ccc(-c3ccccc3)cc2)(C(C)(C)O)CC1 | 192 to 193 °C
65 | CC(=O)c1ccc(NC(=O)c2ccc(-c3ccccc3)cc2)cc1 | 283 to 285 °C
66 | COc1ccc(-c2ccccc2)cc1F | 84.5 to 86 °C
67 | CC(=O)NC1CN(C)S(=O)(=O)c2sc(S(N)(=O)=O)cc21 (stereo not drawn) | 252 to 253 °C
68 | COc1ccc(CCNc2nccc(-c3cccc(NC(=O)CCCN4C=CC=NC4)c3)n2)cc1OC | 121 to 122 °C
69 | CC1(C)COC(c2cc(F)c(F)c([Si](C)(C)C)c2F)=N1 | 71 to 72 °C
70 | O=C(NCCCc1ccncc1)N(C1CCCCC1)C1CCCCC1 | 143 to 146 °C
71 | CCCC1(C)CC(C)c2ccc(O)c(C)c2O1 (stereo not drawn) | 60 °C
72 | O=COC(CCl)(CC(Cl)(Cl)Cl)c1cc(Cl)cc(Cl)c1 (stereo not drawn) | 115 to 117 °C
73 | CCOC(=O)Cc1cc(Br)c(SC(=O)N(C)C)c(Br)c1 | 105 to 107 °C
74 | CC(C)(C)c1cc(C(=O)O)cc(I)c1O | 178 °C
75 | N#Cc1ccc(C(F)(F)F)cn1 | 36 to 38 °C
76 | COC(=O)C=CC(=CN(C)C)C(=O)OC | 62 °C
77 | N#CCN1CCC(c2n[nH]c3cc(F)ccc23)CC1 | 149 to 151 °C
78 | CCc1cccc(CNC[C@@H](O)[C@H](Cc2cc(F)cc(F)c2)NC(=O)CC2CCCC(=O)C2)c1 (stereo partly drawn) | 140 to 150 °C
79 | O=C(NCc1ccccc1)C1c2ccccc2-c2ccccc21 | 195 to 200 °C
80 | Cc1ccc(COC2C(Sc3ccccc3)OC(C)C(OC(=O)c3ccccc3)C2OC(=O)c2ccccc2)cc1 (stereo not drawn) | 81 to 83 °C
81 | O=C(c1cccs1)N(CCCCn1ccnc1)C1=Nc2cccc3cccc1c23 | 76 to 80 °C
82 | Cc1cccc(-c2nc3ccc(Cl)nn3c2-c2ccnc(Nc3ccc(F)cc3C)c2)c1 | 191 to 192 °C

Row | SMILES | melting point
83 | COc1cc(OC)c(OC)c(OC)c1OC | 59 to 61 °C
84 | COc1cc2c(c(OC)c1OC)C(=O)CC2 | 114 to 115 °C
85 | CCC(=O)c1ccc(SC)cc1 | 60 to 61 °C
86 | CC(C)(C)C(F)(F)c1ccc(C[C@H](N)[C@H](O)c2cccc(Cl)c2)cc1 (racemic) | 105 to 107 °C
87 | CC(=O)N(N)c1ccc(C(F)(F)F)cc1NC(=O)c1ccccc1 | 212 to 214 °C
88 | C[C@@H](NC(=O)c1ccc(-c2ccc(Cl)cc2)s1)[C@](O)(Cn1cncn1)c1ccc(F)cc1F | 169 to 170 °C
89 | FC(F)Oc1n[nH]cc1-c1ccccc1 | 125 °C
90 | CC(C)NC(=O)c1cnc(N2CCC(N3C(=O)OCc4ccccc43)CC2)c(Cl)c1 | 216 °C
91 | CON(C)C(=O)Nc1ccc(CC#N)cc1Cl | 104 °C
92 | O=C(NCc1ccccn1)c1cc(OCC(F)(F)F)ccc1OCc1ccccc1 | 115 to 116 °C
93 | CNC(Cc1ccccc1NC(=O)C(C)(C)C)c1ccccc1 (stereo not drawn) | 85 to 86 °C
94 | CC(C)(C)OC(=O)NC1CCN(C2CCN(Cc3ccccc3)CC2)C1 (stereo not drawn) | 118 °C
95 | CCCCOc1ccccc1-c1ccc(C(N)=O)c(=O)[nH]1 | 190 to 191 °C
96 | CC(Nc1ccc(Oc2ccc(O)cc2)cc1)C(=O)O (stereo not drawn) | 188 °C
97 | CCCCCCCSC[C@H](N[C@@H](C)C(=O)N1CCC[C@H]1C(=O)O)C(=O)O | 75 to 83 °C
98 | O=C(O)c1ccc([N+](=O)[O-])cc1C(F)(F)F | 128 to 129 °C
99 | N=C(NS(=O)(=O)C=Cc1ccccc1)c1ccccc1 | 192 to 194 °C
100 | O=C(NCCCc1ccccc1)Nc1ccccn1 | 127 to 128 °C
101 | CC(C)(C)c1ccc([N+](=O)[O-])c(C(=O)O)c1 | 137 to 139 °C
102 | CCCCN1C(=O)NC(=Cc2cccs2)C1=O | 140 °C
103 | C=CCNC(=O)N1CCC1c1ccccc1F (stereo not drawn) | 119 to 120 °C
